Experimental data: PubChem BioAssay (NCI)
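A five-concentration, 48-hour dose response in 96-well plates underlies each endpoint, interpolated linearly between surrounding concentrations. The concentration for 50% growth inhibition is given as GI50. At the TGI there is no net growth.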

Experiments:
Assay in all cases: NCI tumour cell line growth inhibition, 48 h
[1] = test system: 786-0 renal
[2] = test system: A498 renal
[3] = test system: A549 NSCLC
[4] = test system: ACHN renal
[5] = test system: BT-549 breast
[6] = test system: CAKI-1 renal
[7] = test system: CCRF-CEM leukemia
[8] = test system: COLO 205 colon
[9] = test system: DU-145 prostate
[10] = test system: EKVX NSCLC
[11] = test system: HCC-2998 colon
[12] = test system: HCT-116 colon
[13] = test system: HCT-15 colon
[14] = test system: HL-60(TB) leukemia
[15] = test system: HOP-62 NSCLC
[16] = test system: HOP-92 NSCLC
[17] = test system: HS 578T breast
[18] = test system: HT29 colon
[19] = test system: IGROV1 ovarian
[20] = test system: K-562 leukemia
[21] = test system: KM12 colon
[22] = test system: LOX IMVI melanoma
[23] = test system: M14 melanoma
[24] = test system: MALME-3M melanoma
[25] = test system: MCF7 breast
[26] = test system: MDA-MB-231 breast
[27] = test system: MDA-MB-435
[28] = test system: MOLT-4 leukemia
[29] = test system: NCI-H226 lung

Compound CSc1ccc(/C(=N/N=C(N)N)c2ccc(Cl)cc2)cc1 has a GI50 [1] of 754 nM, a TGI [1] of 2350 nM and a GI50 [2] of 1810 nM. It also gave a TGI [2] of 4980 nM, a GI50 [3] of 399 nM and a TGI [3] of 4810 nM. The GI50 [4] was 744 nM, the TGI [4] was 4460 nM and the GI50 [5] was 1700 nM. The TGI [5] was 3350 nM, the GI50 [6] was 536 nM and the TGI [6] was 2980 nM. The GI50 [7] was 375 nM, the TGI [7] was 5990 nM and the GI50 [8] was 298 nM. For the same compound, the TGI [8] was 864 nM, the GI50 [9] was 468 nM and the TGI [9] was 4240 nM. The GI50 [10] was 1030 nM, the TGI [10] was 14700 nM and the GI50 [11] was 333 nM. The TGI [11] was 1160 nM, the GI50 [12] was 364 nM and the TGI [12] was 1270 nM. The GI50 [13] was 340 nM, the TGI [13] was 2140 nM and the GI50 [14] was 268 nM. For the same compound, the TGI [14] was 784 nM, the GI50 [15] was 569 nM and the TGI [15] was 5660 nM. The GI50 [16] was 663 nM, the TGI [16] was 5510 nM and the GI50 [17] was 1280 nM. The TGI [17] was 14900 nM, the GI50 [18] was 332 nM and the TGI [18] was 1130 nM. It also gave a GI50 [19] of 860 nM, a TGI [19] of 5860 nM and a GI50 [20] of 342 nM. It also gave a TGI [20] of 1700 nM, a GI50 [21] of 416 nM and a TGI [21] of 4010 nM. It also gave a GI50 [22] of 397 nM, a TGI [22] of 1520 nM and a GI50 [23] of 362 nM. It also gave a TGI [23] of 1270 nM, a GI50 [24] of 869 nM and a TGI [24] of 2410 nM. It also gave a GI50 [25] of 355 nM, a TGI [25] of 2060 nM and a GI50 [26] of 499 nM. It also gave a TGI [26] of 3180 nM, a GI50 [27] of 242 nM and a TGI [27] of 593 nM. It also gave a GI50 [28] of 422 nM, a TGI [28] of 3520 nM and a GI50 [29] of 1180 nM. The TGI [29] was 6400 nM.
